Experimental findings from patent US9238807B2, “Peptide increasing fusiogenic capacity of a gamete” (UNIVERSITE PARIS 13, priority 2003, dated 2016) are described below.

Positions of bridges follow the written chain, without caps; N, C: chain ends. Residues, ends and D or L forms follow the SMILES beside them. No end group written: not given here.

The test system of series [1] is human zona-free oocytes and spermatozoa. The class given is cell-based. On the procedure: (§1) Patients donated said oocytes for research purposes and signed a consent form approved by the Institutional Review Board of the Aulnay-sous-Bois hospital.
These oocytes aged 48 hours or matured in vitro were not or were no longer capable of producing an embryo. Moreover, the polyspermy blocking mechanism which ensures that the embryo will be diploid is located in the zona pellucida of the oocyte. By removing the zona pellucida of these oocytes, this protective mechanism is abolished, leading to nonviable polyspermic zygotes in the event of gamete fusion. Finally, as embryo development occurs inside the zona pellucida for the first six days, the absence of the latter precludes said development from taking place.
(§2) To maintain the oocyte membrane as close as possible to its natural state, the inventors removed the zona pellucida mechanically with microsurgical scissors.
Sperm from fertile donors was collected after three days of abstinence and prepared as for IVF. […]
Functional tests of inhibition of fusion were carried out in conditions similar to those used for IVF, that is, in conditions sufficiently close to physiological conditions since they enable pregnancy and fetuses. […] The slides were analyzed under a Zeiss Axiophot microscope equipped with a camera connected to Imaging System Package image analysis software (Applied Imaging, Newcastle-upon-Tyne, UK). […]

A further series relates to human oocyte membrane. Nature of the series: Detection of biotinylated FEEc peptide at the surface of human oocytes (immunofluorescence, confocal microscopy). As to conditions: 200 μM biotinylated peptide, 45 minutes, FIG. 1. Format: binding. On the procedure: as §1, §2
The oocytes were incubated with 200 μM biotinylated FEEc peptide for 45 minutes.
The zona pellucida was mechanically removed from the oocytes which were then incubated for 45 minutes with […] biotinylated peptide. The FEEc peptide was detected with a mouse anti-biotin antibody recognized by a biotinylated anti-mouse immunoglobulin antibody then by streptavidin-FITC. The oocytes were then mounted in immunomount between the coverslip and the slide and examined under a confocal microscope, B: superimposition of sections corresponding to a hemi-oocyte.

With `N[C@H]1CSSC[C@@H](C(=O)O)NC(=O)[C@H](CCC(=O)O)NC(=O)[C@H](CCC(=O)O)NC(=O)[C@H](Cc2ccccc2)NC(=O)[C@H](CO)NC1=O` [FEEc, CSFEEC] (H-CSFEEC-OH; disulfide 1-6), the “toxic effect on oocytes” value in series [1] was “no toxic effect on oocytes”. As for “biotinylated FEEc: FEEc cyclic peptide labelled with biotin for detection on oocytes (CSFEEC; disulfide 1-6 (inferred); also: biotinylated (position not given here))”, the “labelling of the oocyte membrane with the peptide” value with human oocyte membrane is “labelling of the membrane”.
